Data on two compounds can be found in patent publication US20240059719A1, “GOLD COMPLEXES AS ANTICANCER AGENT” (King Saud University, priority 2023, published 2024).

Molecules are shown by their SMILES.

Holding throughout (format): cell-based
In test [1] the test system is MCF-7 cells. In words: Intracellular ATP analysis (colorimetric ATP assay kit). Conditions: 0-100 μM, 12 h. On the procedure: The intracellular ATP levels were determined after the exposure of PBTDG and erlotinib (0-100 μM) to MCF-7 cells for 12 h using a colorimetric ATP assay kit (Sigma-Aldrich, USA) according to the manufacturer instructions. The unknown concentrations of the test samples were calculated using the linear standard curve generated from the concentration of 0-12 nmole ATP. […]

Test [2] concerns MCF-7 breast cancer cells. In words: MTT cell viability analysis (cytotoxicity). Conditions: Homo sapiens, MCF7, MCF-7 cells, 24 hours treatment. On the procedure:
MTT (3-(4,5-dimethylthiazol-2-yl)-2,5-diphenyltetrazolium bromide) assay was used for cell viability analysis. MCF-7 breast cancer cells were seeded in a cell culture plate (96-well) at 10^4 cells per well in 200 μl of Dulbecco's modified Eagle medium (DMEM). […] MTT solution (20 μl of 5 mg/mL) was added to each well of the micro plate, which were then incubated in a CO2 incubator at 37° C. for 3 hours. After incubation, the culture medium was removed and 100 μL of isopropanol were added to each well of the micro plate and the absorbance was recorded at 570 nm against reagent blank. The cell viability was calculated using the formula:
Cell viability %=100*(Absorbance sample)/(Absorbance blank)

The test system of test [3] is MCF-7 cells. In words: Mitochondrial membrane potential analysis (Muse MitoPotential flow cytometry). The following applies: 24 hours. Here is the method: Muse MitoPotential Flow Cytometry Kit (Luminex, IL, USA) was used for measuring mitochondrial membrane potential (MMP). MCF-7 cells were seeded (15000 cells per well) in a 6-wells culture plate. […] A negative control (DMSO) was run in parallel. Finally, the cells were stained with Mito Potential reagents provided in the kit, following the manufacturer's instructions, and then analyzed by flow cytometry.
On the technique in general: Flow cytometry measures light scatter and fluorescence of single cells or particles in a stream.

For test [4], the system named is MCF-7 cells. In words: Reactive oxygen species analysis (Muse Oxidative Stress Kit, flow cytometry). The following applies: 24 h. On the procedure: For the analysis of reactive oxygen species (ROS), MCF-7 cells were seeded ([…]) in a 6-well plate and allowed to grow for 24 h at 37° C. under the environment of 5% CO2 and 95% humidity. […] DMS( )served as a negative control. The final DMSO concentration in each well was less than 0.1%. After harvesting the cells, they were stained with Muse® Oxidative Stress Kit (Luminex, IL, USA) following the manufacturer's instructions. The percentage of cells with oxidative stress was measured by flow cytometry analysis.

For the compound `C#Cc1cccc(Nc2ncnc3cc(OCCOC)c(OCCOC)cc23)c1` [erlotinib], the “Effect on intracellular ATP levels” value in test [1] is listed as “depleted”.
For `CNC(=O)c1cc(Oc2ccc(NC(=O)Nc3ccc(Cl)c(C(F)(F)F)c3)cc2)ccn1` [sorafenib], in test [2], it took 4.45 µM to reach half-maximal inhibition (IC50). Moreover, the Mitochondrial membrane depolarization in test [3] (1.0 μM) was 2.7%; in test [3] (5.0 μM), 12.0%. Moreover, the ROS generation in test [4] (1 μM) is listed as 73.76%; in test [4] (5 μM) it was 122.11%.

Usually IC50 stands for the concentration that gives 50% inhibition. Read a high IC50 as a need for much substance.
